# Measured values from patent US7026339B2, “Inhibitors of HCV NS5B polymerase” (priority 2003, dated 2006).
# Tested on: HuH-7 replicon cells 5–15 and 9–13 (HCV replication)
# Assay: Inhibition of viral replication in HuH-7 replicon cells (HCV RNA / GAPDH RNA by multiplex RT-PCR)
# Type: cell-based
# Details: Hepatitis C virus, 72 h; inhibiting 50% of replication; HuH-7 replicon cells, 3 days; read-out: IC50
# In short: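 HCV and GAPDH RNA were measured by multiplex TaqMan RT-PCR (HCV 5′ untranslated region) after 3-day compound treatment at 37 °C, final 100 μM–1 μM in 1% DMSO. Cells were plated 24 h beforehand at 7×10^3/well. Read-out: HCV-to-GAPDH ratio expressed as percent control versus untreated cells.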
row,Compound,IC50 [µM]
1,"COc1ccc(CC(=O)N/N=C/c2ccccc2OS(=O)(=O)c2ccc(C(F)(F)F)cc2)c(OC)c1 [Compound 51, 2-((E)-{2-[2-(2,4-dimethoxyphenyl)acetyl]hydrazono}methyl)-phenyl 4-(trifluoromethyl)benzenesulfonate]",< 5
2,"COc1cccc(CC(=O)N/N=C/c2ccccc2OS(=O)(=O)c2ccc(Oc3ncc(C(F)(F)F)cc3Cl)cc2)c1 [Compound 218, 2-((E)-{2-[2-(3-methoxyphenyl)acetyl]hydrazono}methyl)-phenyl 4-{[3-chloro-5-(trifluoromethyl)pyridin-2-yl]oxy}benzenesulfonate]",> 50
3,"CC(C)(C)c1ccc(COc2ccccc2/C=N/NC(=O)Cc2cccnc2)cc1 [Compound 237, N′-((1E)-{2-[(4-tert-butylbenzyl)oxy]phenyl}methylene)-2-pyridin-3-ylacetohydrazide]",> 50
4,"Cn1cnc(CC(=O)N/N=C/c2ccccc2OS(=O)(=O)c2ccc(C(F)(F)F)cc2)c1 [Compound 106, 2-((E)-{2-[2-(1-methyl-1H-imidazol-4-yl)acetyl]hydrazono}methyl)phenyl 4-(trifluoromethyl)benzenesulfonate]",< 5
5,"O=C(N/N=C/c1ccccc1OS(=O)(=O)c1ccc(C(F)(F)F)cc1)c1cc(Cl)ccc1Cl [Compound 72, 2-{(E)-[2-(2,5-dichlorobenzoyl)hydrazono]methyl}phenyl4-(trifluoromethyl)benzenesulfonate]",< 5
6,"CN(c1ccccc1/C=N/NC(=O)c1cc(Cl)ccc1Cl)S(=O)(=O)c1ccc(C(F)(F)F)cc1 [Compound 240, N-(2-{(E)-[(2,5-dichlorobenzoyl)hydrazono]methyl}phenyl)-N-methyl-4-(trifluoromethyl)benzenesulfonamide]",1
7,"O=C(N/N=C/c1ccccc1OS(=O)(=O)c1ccc(C(F)(F)F)cc1)c1ccccc1[N+](=O)[O-] [Compound 77, 2-{(E)-[2-(2-nitrobenzoyl)hydrazono]methyl}phenyl 4-(trifluoromethyl)benzenesulfonate]",< 5
8,"O=C(Cc1ccccc1)N/N=C/c1ccccc1OS(=O)(=O)c1cccc(Br)c1 [Compound 127, 2-{(E)-[2-(2-phenylacetyl)hydrazono]methyl}phenyl 3-bromobenzenesulfonate]",5 to 50
9,"Cc1ccc(S(=O)(=O)Oc2cc(F)ccc2/C=N/NC(=O)Cc2cccc(Cl)c2)cc1 [Compound 212, 2-((E)-{[(3-chlorophenyl)acetyl]hydrazono}methyl)-5-fluorophenyl 4-methylbenzenesulfonate]",< 5
10,"COc1cccc(CC(=O)N/N=C/c2cc(F)ccc2OS(=O)(=O)c2ccc(C)cc2)c1 [Compound 158, 4-fluoro-2-((E)-{[(3-methoxyphenyl)acetyl]hydrazono}methyl)-phenyl 4-methylbenzenesulfonate]",< 5
11,"COc1ccc(OC)c(S(=O)(=O)Oc2ccccc2/C=N/NC(=O)Cc2ccccc2)c1 [Compound 138, 2-{(E)-[2-(2-phenylacetyl)hydrazono]methyl}phenyl2,5-dimethoxybenzenesulfonate]",> 50
12,"O=C(N/N=C/c1ccccc1OS(=O)(=O)c1ccc(C(F)(F)F)cc1)c1cccc2ccccc12 [Compound 71, 2-{(E)-[2-(1-naphthoyl)hydrazono]methyl}phenyl 4-(trifluoromethyl)benzenesulfonate]",< 5
13,"O=C(Cc1ccccc1)N/N=C/c1ccccc1OS(=O)(=O)c1cccs1 [Compound 109, 2-{(E)-[2-(2-phenylacetyl)hydrazono]methyl}phenylthiophene-2-sulfonate]",> 50
14,"COc1cccc(CC(=O)N/N=C/c2ccncc2OS(=O)(=O)c2ccc(C(F)(F)F)cc2)c1 [Compound 230, 4-((E)-{2-[2-(3-methoxyphenyl)acetyl]hydrazono}methyl)-pyridin-3-yl 4-(trifluoromethyl)benzenesulfonate]",< 5
15,"Cc1ccccc1C(=O)N/N=C/c1ccccc1OS(=O)(=O)c1ccc(C(F)(F)F)cc1 [Compound 100, 2-{(E)-[2-(2-methylbenzoyl)hydrazono]methyl}phenyl4-(trifluoromethyl)benzenesulfonate]",< 5
16,"Cc1ncccc1C(=O)N/N=C/c1ccccc1OS(=O)(=O)c1ccc(C(F)(F)F)cc1 [Compound 92, 2-((E)-{2-[(2-methylpyridin-3-yl)carbonyl]hydrazono}methyl)phenyl 4-(trifluoromethyl)benzenesulfonate]",5 to 50
17,"COc1cccc(CC(=O)N/N=C/c2ccccc2OCc2ccc(C)cc2)c1 [Compound 236, 2-(3-methoxyphenyl)-N′-((1E)-{2-[(4-methylbenzyl)oxy]phenyl}methylene)-acetohydrazide]",> 50
18,"O=C(Cc1ccccc1F)N/N=C/c1ccccc1OS(=O)(=O)c1ccc(C(F)(F)F)cc1 [Compound 41, 2-((E)-{2-[2-(2-fluorophenyl)acetyl]hydrazono}methyl)-phenyl 4-(trifluoromethyl)benzenesulfonate]",< 5

row,Compound,IC50 [µM]
1,"O=C(Cc1ccc(C(F)(F)F)c(F)c1)N/N=C/c1ccccc1OS(=O)(=O)c1ccc(C(F)(F)F)cc1 [Compound 14, 2-[(E)-(2-{2-[3-fluoro-4-(trifluoromethyl)phenyl]acetyl}hydrazono)-methyl]phenyl 4-(trifluoromethyl)benzenesulfonate]",< 5
2,"CN(c1ccccc1/C=N/NC(=O)Cc1ccccc1)S(=O)(=O)c1ccc(C(F)(F)F)cc1 [Compound 243, N-methyl-N-(2-{(E)-[(phenylacetyl)hydrazono]methyl}phenyl)-4-(trifluoromethyl)benzenesulfonamide]",< 5
3,"O=C(Cc1cccc(C(F)(F)F)c1)N/N=C/c1ccccc1OS(=O)(=O)c1ccc(C(F)(F)F)cc1 [Compound 35, 2-[(E)-(2-{2-[3-(trifluoromethyl)phenyl]acetyl}hydrazono)-methyl]phenyl 4-(trifluoromethyl)benzenesulfonate]",< 5
4,"COc1ccc(S(=O)(=O)Oc2ccccc2/C=N/NC(=O)Cc2cccc(OC)c2)cc1 [Compound 151, 2-((E)-{2-[2-(3-methoxyphenyl)acetyl]hydrazono}methyl)-phenyl 4-methoxybenzenesulfonate]",< 5
5,"COc1cccc(CC(=O)N/N=C/c2c(C)cccc2OS(=O)(=O)c2ccc(C)cc2)c1 [Compound 204, 2-((E)-{[(3-methoxyphenyl)acetyl]hydrazono}methyl)-3-methylphenyl 4-methylbenzenesulfonate]",< 5
6,"O=S(=O)(Cc1ccc(C(F)(F)F)cc1)N/N=C/c1ccccc1OS(=O)(=O)c1ccc(C(F)(F)F)cc1 [Compound 252, 2-[(E)-(2-{[4-(trifluoromethyl)benzyl]sulfonyl}hydrazono)-methyl]phenyl 4-(trifluoromethyl)benzenesulfonate]",5 to 50
7,"O=C(Cc1cc(F)c(F)c(F)c1)N/N=C/c1ccccc1OS(=O)(=O)c1ccc(C(F)(F)F)cc1 [Compound 18, 2-((E)-{2-[2-(3,4,5-trifluorophenyl)acetyl]hydrazono}methyl)-phenyl 4-(trifluoromethyl)benzenesulfonate]",< 5
8,"Cc1ccc(S(=O)(=O)N/N=C/c2ccccc2OS(=O)(=O)c2ccc(C(F)(F)F)cc2)cc1 [Compound 78, 2-((E)-{2-[(4-methylphenyl)sulfonyl]hydrazono}methyl)-phenyl 4-(trifluoromethyl)benzenesulfonate]",5 to 50
9,"COc1cccc(CC(=O)N/N=C/c2ccc(Cl)cc2OS(=O)(=O)c2ccc(C(F)(F)F)cc2)c1 [Compound 210, 5-chloro-2-((E)-{[(3-methoxyphenyl)acetyl]hydrazono}methyl)-phenyl 4-(trifluoromethyl)benzenesulfonate]",5 to 50
10,"O=C(Cc1ccc(F)c(C(F)(F)F)c1)N/N=C/c1ccccc1OS(=O)(=O)c1ccc(C(F)(F)F)cc1 [Compound 13, 2-[(E)-(2-{2-[4-fluoro-3-(trifluoromethyl)phenyl]acetyl}hydrazono)-methyl]phenyl 4-(trifluoromethyl)benzenesulfonate]",< 5
11,"COc1cccc(CC(=O)N/N=C/c2ccccc2OS(=O)(=O)c2cc(OC)ccc2OC)c1 [Compound 153, 2-((E)-{2-[2-(3-methoxyphenyl)acetyl]hydrazono}methyl)-phenyl 2,5-dimethoxybenzenesulfonate]",< 5
12,"O=C(Cc1cccc(Cl)c1)N/N=C/c1ccccc1OS(=O)(=O)c1ccc(C(F)(F)F)cc1 [Compound 148, 2-((E)-{2-[2-(3-chlorophenyl)acetyl]hydrazono}methyl)-phenyl 4-(trifluoromethyl)benzenesulfonate]",< 5
13,"O=C(Cc1ccc(F)cc1Cl)N/N=C/c1ccccc1OS(=O)(=O)c1ccc(C(F)(F)F)cc1 [Compound 10, 2-((E)-{2-[2-(2-chloro-4-fluorophenyl)acetyl]hydrazono}methyl)-phenyl 4-(trifluoromethyl)benzenesulfonate]",< 5
14,"Cc1ccccc1CC(=O)N/N=C/c1ccccc1OS(=O)(=O)c1ccc(C(F)(F)F)cc1 [Compound 42, 2-((E)-{-[2-(2-methylphenyl)acetyl]hydrazono}methyl)-phenyl 4-(trifluoromethyl)benzenesulfonate]",< 5
15,"COc1cccc(CC(=O)N/N=C/c2ccccc2OS(=O)(=O)c2ccc(C)cc2)c1 [Compound 145, 2-((E)-{2-[2-(3-methoxyphenyl)acetyl]hydrazono}methyl)-phenyl 4-methylbenzenesulfonate]",< 5
16,"CN(C)c1ccc(C(=O)N/N=C/c2ccccc2OS(=O)(=O)c2ccc(C(F)(F)F)cc2)cc1 [Compound 79, 2-((E)-{2-[4-(dimethylamino)benzoyl]hydrazono}methyl)-phenyl 4-(trifluoromethyl)benzenesulfonate]",5 to 50
17,"Cc1ccc(S(=O)(=O)Oc2ccc(F)cc2/C=N/NC(=O)Cc2cccc(Cl)c2)cc1 [Compound 164, 2-((E)-{[(3-chlorophenyl)acetyl]-hydrazono}methyl)-4-fluorophenyl 4-methylbenzenesulfonate]",< 5
